Data from patent US9173383B2, “Recombinant non-human mammalian model for hepatitis infection and immunopathogenesis” (The University of North Carolina at Chapel Hill, priority 2008, dated 2015).

Tests used:
[1] = test system: HepG2 cells; test: Hepatocyte-specific apoptosis with Alb-FKBP-Casp8 in HepG2 cells (7AAD FACS); assay type: cell-based; details: AP20187 2 nM, 24 hours
Excerpt: (§1) FIG. 5. Generation of Alb-FKBP-Casp8 transgenic DKO (AFC8/DKO) mice. (A) The Alb-FKBP-Casp8 transgene structure and AFC8/DKO-hu HSC/Hep mice: the FKBP2Casp8 fusion gene was cloned into the liver specific transgenic construct with the Albumin promoter (see Heckel et al. 1990. Neonatal bleeding in transgenic mice expressing urokinase-type plasminogen activator. Cell 62:447-56). (B) Hepatocyte-specific apoptosis with expression from the albumin promoter/enhancer. […] As described in FIG. 6B, the FKBP-Casp8 gene controlled by CMV enhancer or the hepatocyte-specific albumin promoter was co-transfected with GFP-expressing plasmid in 293T and HepG2 cells. Transfected cells were cultured for 30 hours and AP20187 dimerizer (2 nM) was added to the culture medium. The cells were then cultured for 24 hours, harvested, stained with 7AAD, and analyzed for GFP and 7AAD. GFP+ cells were analyzed for 7AAD uptake (dead cells). (C) Generation of Alb-FKBP-Casp8/DKO transgenic mice. Standard transgenic mouse procedure was used to inject the transgene construct into fertilized DKO embryos. In the initial screening of 11 mice from two injections, one transgenic founder was identified. […]

[2] = test system: 293T cells; test: Hepatocyte-specific apoptosis with Alb-FKBP-Casp8 in 293T cells (7AAD FACS); assay type: cell-based; details: AP20187 2 nM, 24 hours
Excerpt: as §1

[3] = test system: 293T cells transfected with FKBP-Caspase 8; test: Inducible cell killing in 293T cells co-transfected with eGFP and CMV-promoter driven FKBP-Casp8 (7AAD FACS); assay type: cell-based
Excerpt: FIG. 4. Generation of the FKBP-Casp8 fusion gene with inducible cell killing activity. (A) Inducible activation of Caspase 8 through dimerization. The chemical dimerizer AP20187 causes dimerization/activation of Caspase 8 through interaction of adjacent FKBP binding sites. M, myristoylation signal; FKBP, FK506 binding domain; caspase, human activated caspase 8 (fragment Ser217-Aps479. ref) was cloned into the pC4M-Fv2E vector (Ariad Pharmaceuticals) to express the FKBP2-Casp8 fusion protein whose activation is induced by dimerization with AP20187. (B-C) Dose-dependent induction of apoptosis in cells transfected with FKBP-Caspase 8. 293T cells were co-transfected with plasmids expressing eGFP alone, or with CMV-promoter driven FKBP-Casp8. Transfected cells were cultured for 30 hours and then various amounts of AP20187 dimerizer was added. The cells were then cultured for 24 hours, harvested, stained with 7AAD, and analyzed by FACS for GFP and 7AAD. (B) GFP+ (transfected) cells were gated and the percentage of dead cells (7AAD+) was analyzed. (C) GFP− (untransfected bystander) cells were similarly analyzed. At least 3 independent experiments are repeated.
The FKBP-Caspase8 fusion gene with inducible cell killing activity was constructed (FIG. 4; and Chang et al. 2003. Activation of procaspases by FK506 binding protein-mediated oligomerization. Sci STKE 2003:PL1). […] Therefore, FKBP-Casp8 activation by AP20187 kills target cells expressing the gene but not bystander cells, an important point for depleting specific target cells in vivo.

[4] = test system: murine hepatocytes; test: Dimer injection in AFC8/DKO transgenic mice: mouse liver damage (plasma ALT, H&E); assay type: in vivo
Protocol: (§2) FIG. 9. […] AFC8/DKO transgenic mice were treated with AP20187 (5 μg/g). A. Plasma ALT levels were measured at 24 hr and 72 hr (and 3-6 days, not shown) post treatment. […] Two non-TG DKO mice were used as controls (dashed line, background). B. Livers were harvested at 24 h after the 2nd injection and H&E stained. […] V, vein. C. […] AFC8/DKO or DKO mice were treated with AP20187 (5 μg/g) one hour prior to intra-splenic injection of human hepatocytes (2×10e6/mouse). Sera were collected at 80 days post transfer and human albumin levels were determined by ELISA. […] AFC8/DKO transgenic mice were treated with AP20187 (5 μg/g). Plasma ALT levels were measured at 24 hr and 72 hr (and 3-6 days, not shown) post treatment (FIG. 9A). […] Two non-TG DKO mice were used as controls (dashed line, background). Livers were harvested at 24 h after the 2nd injection and H&E stained (FIG. 9B). […] V, vein. […] AFC8/DKO or DKO mice were treated with AP20187 (5 μg/g) one hour prior to intra-splenic injection of human hepatocytes (2×10e6/mouse). Sera were collected at 80 days post transfer and human albumin levels were determined by ELISA.

[5] = test system: FKBP-Casp8; details: 0.25, 1, 4 and 10 mg/kg, peritoneal; cited from earlier work
[6] = test system: human hepatocyte engraftment; test: Human hepatocyte engraftment in AP20187-treated AFC8/DKO mice (human albumin ELISA); assay type: in vivo, mouse
Protocol: as §2

[7] = test system: human T and B cells; test: Ova vaccination of DKO-hu mice, Ova-specific T and B cell responses; assay type: in vivo, mouse; details: 3 weeks post vaccination
Protocol: FIG. 1. Long-term, stable human hemato-lymphopoiesis in HSC-DKO Mice. Human fetal liver CD34+ cells were injected intra-hepatically in newborn (1-3 days old) DKO mice. At 12-50 weeks post transplant, the human CD45^+, murine CD45^− cells in PBMC, lymph node (LN), spleen, bone marrow and thymus were analyzed by multi-color FACS. A: Human CD45 reconstitution (12-16 weeks old) in 5 cohorts of DKO-hu HSC mice from 5 independent donor fetal livers. Shown is average % human CD45+ cells in PB of reconstituted DKO-hu HSC mice. Error bars indicate standard errors of each cohort (n=numbers of mice/cohort). B: Human cells reconstitution in PBMC of the transplanted mice. […] Human T cells from a DKO-hu mouse at 50 weeks are analyzed for expression of CD45RO and CD69. […] Human T proliferation is measured by 3-H thymidine incorporation for 16 hr after 3 days post co-culture. […] H: DKO-hu mice are vaccinated with Ova protein and Ova-specific T cell recall response is measured at 3 weeks post vaccination. […] Human T cell proliferation is measured as above.
Human T cells are negatively selected by both mouse MHC/APC and human MHC/APC because both human and mouse antigen presenting cells (APC) are detected in the mouse thymus (see Traggiai et al. 2004. Development of a human adaptive immune system in cord blood cell-transplanted mice. Science 304:104-7). […]

[8] = test system: Ova-specific human IgG; test: Immunization of DKO-hu HSC mice, Ova-specific human IgG induction; assay type: in vivo; details: DKO-hu HSC mouse
Excerpt: FIG. 8. Antigen-Fc fusion proteins give enhanced antigen-specific IgG induction in vivo.
Human IgG+ B cells were increased by activating human T cells in the spleen in vitro with anti-CD3/CD28 mAb (FIG. 7). […] Ova-specific human IgG induction is enhanced by using the fusion protein between the same chicken ovalbumin protein with the Fc domain of human IgG (FIG. 8).

[9] = various amounts of AP20187, 24 hours

Row | Molecule | cell killing (7AAD uptake of GFP+ cells) with Alb-FKBP-Casp8 [1] | cell killing (7AAD uptake of GFP+ cells) with Alb-FKBP-Casp8 [2] | effect on cells transfected with only GFP expressing gene [3] | death of GFP+/FKBP-Casp8+ (transfected) cells, 7AAD+ [3, 9] | death of GFP− (untransfected bystander) cells [3, 9] | liver H&E staining ([4]; 24 h after the 2nd injection, TG livers) | mouse liver damage ([4]; AFC8/DKO mice, 5 μg/g) | plasma ALT levels ([4]; second injection 6 days after 1st injection, 5 μg/g) | inducing Caspase8 activation and target cell depletion [5] | toxicity in mice [5] | human albumin levels in sera (ELISA) ([6]; 5 μg/g one hour prior to intra-splenic human hepatocytes, 80 days post transfer) | enhanced human hepatocyte engraftment ([6]; dimer injection in AFC8/DKO mice) | enhanced human hepatocyte engraftment ([6]; one injection of dimerizers) | Ova-specific human T and B cell responses [7] | Ova-specific human IgG [8]
1 | CC[C@H](C(=O)N1CCCC[C@H]1C(=O)O[C@H](CCc1ccc(OC)c(OC)c1)c1cccc(OCC(=O)NCC(CNC(=O)COc2cccc([C@@H](CCc3ccc(OC)c(OC)c3)OC(=O)[C@@H]3CCCCN3C(=O)[C@@H](CC)c3cc(OC)c(OC)c(OC)c3)c2)CN(C)C)c1)c1cc(OC)c(OC)c(OC)c1 [AP20187] | functions in HepG2 | not 293T cells | no detectable effect | led to death of GFP+/FKBP-Casp8+ cells | not GFP− bystander cells | Accumulation of fat droplets | transient mouse liver damage | elevated ALT levels | effective | No toxicity is observed | Enhanced human albumin levels | 50-100 × | 100 × |  | 
2 | chicken ovalbumin protein: chicken ovalbumin protein used as immunization antigen (protein, UniProt P01012 2-386, looked up) Ovalbumin: GSIGAASMEFCFDVFKELKVHHANENIFYCPIAIMSALAMVYLGAKDSTRTQINKVVRFDKLPGFGDSIEAQCGTSVNVHSSLRDILNQITKPNDVYSFSLASRLYAEERYPILPEYLQCVKELYRGGLEPINFQTAADQARELINSWVESQTNGIIRNVLQPSSVDSQTAMVLVNAIVFKGLWEKAFKDEDTQAMPFRVTEQESKPVQMMYQIGLFRVASMASEKMKILELPFASGTMSMLVLLPDEVSGLEQLESIINFEKLTEWTSSNVMEERKIKVYLPRMKMEEKYNLTSVLMAMGITDVFSSSANLSGISSAESLKISQAVHAAHAEINEAGREVVGSAEAGVDAASVSEEFRADHPFLFCIKHIATNAVLFFGRCVSP |  |  |  |  |  |  |  |  |  |  |  |  |  | induces Ova-specific human T and B cell responses | very low levels
